Reference: patent US20240425502A1, “BICYCLIC HETEROAROMATIC COMPOUNDS AND THEIR USE AS PEST CONTROL AGENTS” (PI INDUSTRIES LTD., priority 2021, published 2024)

Key:
Type in all cases: in vivo
Myzus persicae = Myzus persicae leaf dip test (capsicum leaves, third instar nymphs); conditions: foliar, 72 h after release, dead and moribund combined, compared to untreated control, read-out: percent mortality
Nilaparvata lugens = Nilaparvata lugens seedling dip test (paddy seedlings, third instar nymphs); conditions: 72 h after release, dead and moribund combined, compared to untreated control, read-out: percent mortality
Bemisia tabaci = Bemisia tabaci leaf dip test (brinjal leaves, whitefly adults); conditions: foliar, 72 h after release, dead and moribund combined, compared to untreated control, read-out: percent mortality
Protocol: The leaf dip method was used for testing, wherein the required quantity of the compound was weighed and dissolved in a tube containing a solvent solution. The tube was put on a vortex at 2000 rpm for 90 min for proper mixing and then the mixture was diluted with a 0.01% Triton-X solution to the desired test concentration. Brinjal leaves were dipped in the compound solution for 10 seconds, shade dried for 20 min and then placed, with the abaxial side of the leaf up, on 4 ml of a 1% agar-agar solution in respective container caps. Known numbers of freshly emerged whitefly adults were collected, using a modified aspirator, and released into a perforated container in which the cap containing the treated leaf was placed. The containers were kept in a plant growth chamber at a temperature of 25° C. and a relative humidity of 70%. Observations on dead, moribund and alive adults were recorded 72 h after the release. Percent mortality was calculated by combining dead and moribund adults and comparing the result to the one of the untreated control. The compounds 32 53 58 79 80 81 82 84 87 88 89 94 95 96 101 102 103 104 105 106 107 108 109 112 113 114 115 116 117 118 119 120 123 124 125 126 127 130 135 138 139 140 144 145 147 150 154 156 158 159 164 167 168 169 170 171 188 189 191 198 199 200 201 202 206 207 208 209 210 213 216 223 224 225 227 228 231 232 233 234 235 236 238 242 243 244 246 and 247 recorded≥70 percent mortality @ 300 PPM.

Row | SMILES | mortality at 300 ppm (Myzus persicae) | mortality at 300 ppm (Nilaparvata lugens) | mortality at 300 ppm (Bemisia tabaci)
1 | COc1ccccc1-n1c(=O)nc2n(Cc3cnc(Cl)s3)cccc-2c1=O [Compound 73, 8-((2-chlorothiazol-5-yl)methyl)-3-(2-methoxyphenyl)pyrido[2,3-d]pyrimidine-2,4(3H,8H)-dione] | ≥ 70% | ≥ 70% | –
2 | COc1cccc(-n2c(=O)nc3n(Cc4cnc(Cl)s4)cccc-3c2=O)c1 [Compound 72, 8-((2-chlorothiazol-5-yl)methyl)-3-(3-methoxyphenyl)pyrido[2,3-d]pyrimidine-2,4(3H,8H)-dione] | – | ≥ 70% | –
3 | O=c1nc2n(Cc3cnc(Cl)s3)cccc-2c(=O)n1-c1cccc(OC(F)F)c1 [Compound 151, 8-((2-chlorothiazol-5-yl)methyl)-3-(3-(difluoromethoxy)phenyl)pyrido[2,3-d]pyrimidine-2,4(3H,8H)-dione] | ≥ 70% | ≥ 70% | –
4 | O=c1nc2n(Cc3cnc(Cl)nc3)cccc-2c(=O)n1-c1ccsc1 [Compound 179, 8-((2-chloropyrimidin-5-yl)methyl)-3-(thiophen-3-yl)pyrido[2,3-d]pyrimidine-2,4(3H,8H)-dione] | ≥ 70% | ≥ 70% | –
5 | O=c1nc2n(Cc3ccc(C(F)(F)F)nc3)cccc-2c(=O)n1-c1ccccc1F [Compound 162, 3-(2-fluorophenyl)-8-((6-(trifluoromethyl)pyridin-3-yl)methyl)pyrido[2,3-d]pyrimidine-2,4(3H,8H)-dione] | – | ≥ 70% | –
6 | Cc1ccc(-n2c(=O)nc3n(Cc4cnc(Cl)nc4)cccc-3c2=O)cc1 [Compound 144, 8-((2-chloropyrimidin-5-yl)methyl)-3-(p-tolyl)pyrido[2,3-d]pyrimidine-2,4(3H,8H)-dione] | – | – | ≥ 70%
7 | O=c1nc2n(Cc3cnc(Cl)s3)cccc-2c(=O)n1-c1ccccc1 [Compound 62, 8-((2-chlorothiazol-5-yl)methyl)-3-phenylpyrido[2,3-d]pyrimidine-2,4(3H,8H)-dione] | – | ≥ 70% | –
8 | O=c1nc2n(Cc3cnc(Cl)s3)cccc-2c(=O)n1-c1c(F)cccc1F [Compound 215, 8-((2-chlorothiazol-5-yl)methyl)-3-(2,6-difluorophenyl)pyrido[2,3-d]pyrimidine-2,4(3H,8H)-dione] | – | ≥ 70% | –
9 | O=c1nc2n(Cc3cnc(Cl)s3)cccc-2c(=O)n1-c1cccc(F)c1 [Compound 143, 8-((2-chlorothiazol-5-yl)methyl)-3-(3-fluorophenyl)pyrido[2,3-d]pyrimidine-2,4(3H,8H)-dione] | – | ≥ 70% | –
10 | O=c1nc2n(Cc3ccc(Cl)nc3)cccc-2c(=O)n1-c1ccc(F)c(C(F)(F)F)c1 [Compound 222, 8-((6-chloropyridin-3-yl)methyl)-3-(4-fluoro-3-(trifluoromethyl)phenyl)pyrido[2,3-d]pyrimidine-2,4(3H,8H)-dione] | ≥ 70% | – | –
11 | O=c1nc2n(Cc3cnc(Cl)nc3)cccc-2c(=O)n1-c1cccc(Cl)c1F [Compound 226, 3-(3-chloro-2-fluorophenyl)-8-((2-chloropyrimidin-5-yl)methyl)pyrido[2,3-d]pyrimidine-2,4(3H,8H)-dione] | ≥ 70% | ≥ 70% | –
12 | O=c1nc2n(Cc3cnc(Cl)s3)cccc-2c(=O)n1-c1cccc(C(F)F)c1 [Compound 187, 8-((2-chlorothiazol-5-yl)methyl)-3-(3-(difluoromethyl)phenyl)pyrido[2,3-d]pyrimidine-2,4(3H,8H)-dione] | ≥ 70% | ≥ 70% | –
13 | O=c1nc2n(Cc3cnc(Cl)s3)cccc-2c(=O)n1-c1ccc(OC(F)(F)F)c(Cl)c1 [Compound 212, 3-(3-chloro-4-(trifluoromethoxy)phenyl)-8-((2-chlorothiazol-5-yl)methyl)pyrido[2,3-d]pyrimidine-2,4(3H,8H)-dione] | ≥ 70% | ≥ 70% | –
14 | O=c1nc2n(Cc3cnc(Cl)s3)cccc-2c(=O)n1-c1cccc(F)c1F [Compound 214, 8-((2-chlorothiazol-5-yl)methyl)-3-(2,3-difluorophenyl)pyrido[2,3-d]pyrimidine-2,4(3H,8H)-dione] | ≥ 70% | ≥ 70% | –
15 | O=c1nc2n(Cc3cnc(Cl)s3)cccc-2c(=O)n1-c1cccc(Br)c1 [Compound 249, 3-(3-bromophenyl)-8-((2-chlorothiazol-5-yl)methyl)pyrido[2,3-d]pyrimidine-2,4(3H,8H)-dione] | – | ≥ 70% | –
16 | O=c1nc2n(Cc3cnc(Cl)nc3)cccc-2c(=O)n1-c1cccc(C(F)F)c1 [Compound 203, 8-((2-chloropyrimidin-5-yl)methyl)-3-(3-(difluoromethyl)phenyl)pyrido[2,3-d]pyrimidine-2,4(3H,8H)-dione] | ≥ 70% | ≥ 70% | –
17 | O=c1nc2n(Cc3ccc(Cl)nc3)cccc-2c(=O)n1-c1cccc(OCC(F)(F)F)c1 [Compound 211, 8-((6-chloropyridin-3-yl)methyl)-3-(3-(2,2,2-trifluoroethoxy)phenyl)pyrido[2,3-d]pyrimidine-2,4(3H,8H)-dione] | ≥ 70% | ≥ 70% | –
18 | O=c1nc2n(Cc3cnc(Cl)s3)cccc-2c(=O)n1-c1ccc(Cl)cc1F [Compound 193, 3-(4-chloro-2-fluorophenyl)-8-((2-chlorothiazol-5-yl)methyl)pyrido[2,3-d]pyrimidine-2,4(3H,8H)-dione] | ≥ 70% | ≥ 70% | –
19 | O=c1nc2n(Cc3ccc(C(F)(F)F)nc3)cccc-2c(=O)n1-c1cccc(C(F)(F)F)c1 [Compound 172, 3-(3-(trifluoromethyl)phenyl)-8-((6-(trifluoromethyl)pyridin-3-yl)methyl)pyrido[2,3-d]pyrimidine-2,4(3H,8H)-dione] | ≥ 70% | – | –
20 | O=c1nc2n(Cc3cnc(Cl)s3)cccc-2c(=O)n1-c1cc(F)cc(F)c1 [Compound 141, 8-((2-chlorothiazol-5-yl)methyl)-3-(3,5-difluorophenyl)pyrido[2,3-d]pyrimidine-2,4(3H,8H)-dione] | ≥ 70% | ≥ 70% | –
21 | O=c1nc2n(Cc3cnc(Cl)nc3)cccc-2c(=O)n1-c1cccc(F)c1F [Compound 205, 8-((2-chloropyrimidin-5-yl)methyl)-3-(2,3-difluorophenyl)pyrido[2,3-d]pyrimidine-2,4(3H,8H)-dione] | ≥ 70% | ≥ 70% | –
22 | O=c1nc2n(Cc3cnc(Cl)s3)cccc-2c(=O)n1-c1ccc(F)cc1Cl [Compound 237, 3-(2-chloro-4-fluorophenyl)-8-((2-chlorothiazol-5-yl)methyl)pyrido[2,3-d]pyrimidine-2,4(3H,8H)-dione] | – | ≥ 70% | –
23 | O=c1nc2n(Cc3cnc(Cl)s3)cccc-2c(=O)n1-c1ccc(F)cc1 [Compound 153, 8-((2-chlorothiazol-5-yl)methyl)-3-(4-fluorophenyl)pyrido[2,3-d]pyrimidine-2,4(3H,8H)-dione] | – | ≥ 70% | –
24 | O=c1nc2n(Cc3cnc(Cl)s3)cccc-2c(=O)n1-c1ccc(F)c(Cl)c1 [Compound 165, 3-(3-chloro-4-fluorophenyl)-8-((2-chlorothiazol-5-yl)methyl)pyrido[2,3-d]pyrimidine-2,4(3H,8H)-dione] | – | ≥ 70% | –
25 | O=c1nc2n(Cc3cnc(Cl)s3)cccc-2c(=O)n1-c1cccc(Cl)c1F [Compound 217, 3-(3-chloro-2-fluorophenyl)-8-((2-chlorothiazol-5-yl)methyl)pyrido[2,3-d]pyrimidine-2,4(3H,8H)-dione] | ≥ 70% | ≥ 70% | –
26 | O=c1nc2n(Cc3cnc(Cl)nc3)cccc-2c(=O)n1-c1ccc(OC(F)F)cc1 [Compound 160, 8-((2-chloropyrimidin-5-yl)methyl)-3-(4-(difluoromethoxy)phenyl)pyrido[2,3-d]pyrimidine-2,4(3H,8H)-dione] | ≥ 70% | ≥ 70% | –
27 | Cc1cccc(-n2c(=O)nc3n(Cc4cnc(Cl)nc4)cccc-3c2=O)c1 [Compound 128, 8-((2-chloropyrimidin-5-yl)methyl)-3-(m-tolyl)pyrido[2,3-d]pyrimidine-2,4(3H,8H)-dione] | – | ≥ 70% | –
28 | O=c1nc2n(Cc3ccc(Cl)nc3)cccc-2c(=O)n1-c1ccc(OC(F)(F)F)c(Cl)c1 [Compound 195, 3-(3-chloro-4-(trifluoromethoxy)phenyl)-8-((6-chloropyridin-3-yl)methyl)pyrido[2,3-d]pyrimidine-2,4(3H,8H)-dione] | ≥ 70% | ≥ 70% | –
29 | O=c1nc2n(Cc3cnc(Cl)nc3)cccc-2c(=O)n1-c1ccc(C2CC2)cc1 [Compound 245, 8-((2-chloropyrimidin-5-yl)methyl)-3-(4-cyclopropylphenyl)pyrido[2,3-d]pyrimidine-2,4(3H,8H)-dione] | – | ≥ 70% | –
30 | O=c1nc2n(Cc3ccc(Cl)nc3)cccc-2c(=O)n1-c1ccc(Cl)c(C(F)(F)F)c1 [Compound 219, 3-(4-chloro-3-(trifluoromethyl)phenyl)-8-((6-chloropyridin-3-yl)methyl)pyrido[2,3-d]pyrimidine-2,4(3H,8H)-dione] | – | ≥ 70% | –
